Data: patent US20230390411A1, “CONJUGATE AND USE THEREOF” (NANJING CHEMPION BIOTECHNOLOGY CO., LTD., priority 2021, published 2023)
Starred links: 1 amine or outer side, 2 acyl side, 3 side chain; linkers in the order of their positions; H or OH if unused. Non-standard residues stand in square brackets, D forms with d. Residues, ends and D or L forms follow the SMILES beside them. *: point of attachment. Exatecan = CC[C@@]1(O)C(=O)OCc2c1cc1n(c2=O)Cc2c-1nc1cc(F)c(C)c3c1c2[C@@H](N*)CC3; Dolaproine = CO[C@@H]([C@@H]1CCCN1)[C@@H](C)C(=O)O; Hexanoyl(6-maleimido) = O=C1C=CC(=O)N1CCCCCC(=O)*; Dil = CC[C@H](C)[C@H](NC)[C@@H](CC(=O)O)OC; NHCH2OCH2CO = O=C(COCN[*:1])[*:2]; X1 = C[C@@H](N*)[C@@H](O)c1ccccc1; NMeV = CN[C@H](C(=O)O)C(C)C

Test system: NCI-N87 cells
Test: Cytotoxicity assay (CellTiter-Glo)
Format: cell-based
Conditions: 6 days, max 50 nM
Procedure: When the confluence of cultured NCI-N87 cells reached 70-90%, the cells were digested with trypsin. The trypsin was removed by centrifugation. […] The plate was incubated in a 5% CO2 incubator at 37° C. for 6 days. After the incubation was completed, the cell viability was detected with CellTiter-Glo reagent (Promega, G7573), and the specific cell viability value was measured by a multifunctional microplate reader (PerkinElmer, EnVision).

SMILES | Max Cytotoxicity % [%] | IC50 [nM] | IC50 (Homo sapiens, 144 h) [nM]
CC[C@@]1(O)C(=O)OCc2c1cc1n(c2=O)Cc2c-1nc1cc(F)c(C)c3c1c2[C@@H](NC(=O)COCNC(=O)CNC(=O)[C@H](Cc1ccccc1)NC(=O)CNC(=O)CNC(=O)CCCCCN1C(=O)C=CC1=O)CC3 [DS8201 scaffold, Deruxtecan] ({Hexanoyl(6-maleimido)}-GGFG[NHCH2OCH2CO]-Exatecan) | 9.38 | – | –
CC[C@H](C)[C@@H]([C@@H](CC(=O)N1CCC[C@H]1[C@H](OC)[C@@H](C)C(=O)N[C@H](C)[C@@H](O)c1ccccc1)OC)N(C)C(=O)[C@@H](NC(=O)[C@@H](NC)C(C)C)C(C)C [MMAE, monomethyl auristatin E] (H-[NMeV]V[Dil][Dolaproine]-X1) | 93.50 | 0.13 | –
C=C1C[C@@H]2CC[C@@]34C[C@H]5O[C@H]6[C@@H](O3)[C@H]3O[C@H](CC[C@@H]3O[C@H]6[C@H]5O4)CC(=O)C[C@@H]3[C@@H](OC)[C@@H](C[C@H](O)CN)O[C@H]3C[C@H]3O[C@@H](CC[C@@H]1O2)C[C@@H](C)C3=C [Eribulin, eribulin] | 93.99 | – | 0.22
